# From US8389526B2, “3-heteroarylmethyl-imidazo[1,2-b]pyridazin-6-yl derivatives” (Novartis AG, priority 2009, dated 2013)
# Experiments:
# [1] = target: T1, c-Met (Homo sapiens, UniProt P08581); assay: GTL-16 c-Met autophosphorylation measured by AlphaScreen detection; type: cell-based; details: GTL-16 cells, 1 h incubation, AlphaScreen p-c-Met; read-out: GTL-16 IC50 c-Met phosphorylation
# T1 construct: adapted to measure the phosphorylation of endogenous cellular proteins in cell lysates; endogenous in cells; host or cells: GTL-16
# T1 sequence (P08581 25-1390): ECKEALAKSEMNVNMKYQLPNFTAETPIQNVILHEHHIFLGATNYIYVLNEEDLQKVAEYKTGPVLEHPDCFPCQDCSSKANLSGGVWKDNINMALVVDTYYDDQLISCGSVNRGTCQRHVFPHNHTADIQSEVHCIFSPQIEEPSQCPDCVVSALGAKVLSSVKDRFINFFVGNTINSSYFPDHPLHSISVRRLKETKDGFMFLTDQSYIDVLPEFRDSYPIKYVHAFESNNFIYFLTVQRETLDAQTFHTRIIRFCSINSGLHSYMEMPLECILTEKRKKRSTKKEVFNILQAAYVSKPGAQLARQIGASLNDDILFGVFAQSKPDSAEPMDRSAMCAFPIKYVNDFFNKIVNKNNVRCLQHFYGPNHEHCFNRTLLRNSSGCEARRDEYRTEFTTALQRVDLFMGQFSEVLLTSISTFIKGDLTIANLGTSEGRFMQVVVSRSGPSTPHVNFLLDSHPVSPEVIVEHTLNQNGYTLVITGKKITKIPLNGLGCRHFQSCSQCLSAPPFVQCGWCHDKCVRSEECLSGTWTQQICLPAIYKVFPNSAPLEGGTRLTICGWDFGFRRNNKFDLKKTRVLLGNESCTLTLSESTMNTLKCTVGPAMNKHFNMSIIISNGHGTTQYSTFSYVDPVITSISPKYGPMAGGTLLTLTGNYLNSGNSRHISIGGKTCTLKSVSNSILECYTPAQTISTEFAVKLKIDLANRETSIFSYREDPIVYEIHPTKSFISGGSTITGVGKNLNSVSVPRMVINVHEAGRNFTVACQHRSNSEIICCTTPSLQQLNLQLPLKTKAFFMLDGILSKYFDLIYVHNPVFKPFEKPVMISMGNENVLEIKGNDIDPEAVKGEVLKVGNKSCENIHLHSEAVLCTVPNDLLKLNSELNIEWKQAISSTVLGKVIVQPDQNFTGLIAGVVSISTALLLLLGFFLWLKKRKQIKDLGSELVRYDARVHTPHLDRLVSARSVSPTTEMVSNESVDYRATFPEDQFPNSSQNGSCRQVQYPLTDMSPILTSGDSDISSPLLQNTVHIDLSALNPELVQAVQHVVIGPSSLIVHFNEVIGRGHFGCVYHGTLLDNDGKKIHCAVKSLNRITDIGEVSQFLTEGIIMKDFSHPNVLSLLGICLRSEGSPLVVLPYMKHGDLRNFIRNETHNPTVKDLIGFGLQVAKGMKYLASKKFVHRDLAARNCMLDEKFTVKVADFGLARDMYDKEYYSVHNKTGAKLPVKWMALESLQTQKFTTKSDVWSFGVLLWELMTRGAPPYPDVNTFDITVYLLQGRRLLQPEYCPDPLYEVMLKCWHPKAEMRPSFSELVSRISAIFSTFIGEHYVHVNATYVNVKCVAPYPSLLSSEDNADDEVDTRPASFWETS
# Procedure: (§1) C-Met Dependent Cellular Assays
# (§2) A number of compounds of the present invention were assayed in a c-Met dependent proliferation and phosphorylation assay as follows.
# GTL-16 c-Met autophosphorylation measured by AlphaScreen® detection: the human MET-amplified gastric cancer cells GTL-16 were plated in 384-well plates at a density of 10′000 cells in 20 ul complete growth medium (DMEM high glucose supplemented with 10% (v/v) heat inactivated fetal calf serum and of 1 mM sodium pyruvate) and were incubated at […]/5% CO2/95% humidity for 20 h. The cells were washed and the 30 ul assay buffer (DMEM high glucose, 1 mM sodium pyruvate, 0.1% bovine serum albumine) was added. Compounds were diluted in 384-well compound plates to obtain 8-point serial dilutions for 40 test compounds in 90% DMSO, as well as a reference compound plus 16 high- and 16 low (inhibited) controls. These compound plates were prediluted 1:200 in assay buffer into a compound predilution plate and 10 ul of prediluted compound solution were transferred to the cell plate using a 384-well pipettor, resulting in a final DMSO concentration of 0.11%. Cells were incubated for 1 h at […]/5% CO2/95% humidity. The supernatant was removed, the cells were lysed in 25 ul of RIPA [radio immuno precipitation assay] lysis buffer supplemented with 2 mM sodium vanadate and a protease inhibitor cocktail, and cell plates were stored at −80° C.
# For detection of p-c-Met, an AlphaScreen®-based assay was used. AlphaScreen® (Amplified Luminescent Proximity Homogeneous Assay, ALPHA, Perkin Elmer, U.S.A) is a non-radioactive bead-based proximity assay technology to study biomolecular interactions in a homogenous microtiter plate format. This technique has been adapted to measure the phosphorylation of endogenous cellular proteins in cell lysates by the use of specific antibody pairs against the total protein and a phospho-specific epitope. 5 ul of cell lysate was transferred to 384-well low volume Proxiplates for detection using a 384-well pipettor. First, 5 ul of a premix of an anti-c-Met antibody (0.25 ug/ml f.c.), a biotinylated PY20 antibody (phosphotyrosine antibody, 0.05 ug/ml f.c.) and AlphaScreen® Protein A-coupled acceptor beads (10 ug/ml f.c.) in RIPA buffer supplemented with 0.25% (v/w) TOP BLOCK, 2 mM sodium vanadate, and a protease inhibitor cocktail and was added, the plate was sealed, and incubated on a plate shaker for 2 hours at room temperature. Second, 2 ul of dilution buffer containing AlphaScreen® Streptavidin-coated donor beads (10 ug/ml f.c.) in RIPA buffer was added, and the plate was incubated on plate shaker as above for a further 2 hours. The plate was read on an AlphaScreen® compatible plate reader, using standard AlphaScreen® settings.
# [2] = target: T2, c-Met receptor tyrosine kinase, GST-c-Met(969-1390) (Homo sapiens, UniProt P08581); assay: EPK c-Met profiling assay (LanthaScreen TR-FRET kinase assay); type: biochemical; details: 2 μM ATP, 0.3 nM enzyme, 60 minutes at room temperature
# T2 construct: made in house
# T2 sequence (P08581 969-1390): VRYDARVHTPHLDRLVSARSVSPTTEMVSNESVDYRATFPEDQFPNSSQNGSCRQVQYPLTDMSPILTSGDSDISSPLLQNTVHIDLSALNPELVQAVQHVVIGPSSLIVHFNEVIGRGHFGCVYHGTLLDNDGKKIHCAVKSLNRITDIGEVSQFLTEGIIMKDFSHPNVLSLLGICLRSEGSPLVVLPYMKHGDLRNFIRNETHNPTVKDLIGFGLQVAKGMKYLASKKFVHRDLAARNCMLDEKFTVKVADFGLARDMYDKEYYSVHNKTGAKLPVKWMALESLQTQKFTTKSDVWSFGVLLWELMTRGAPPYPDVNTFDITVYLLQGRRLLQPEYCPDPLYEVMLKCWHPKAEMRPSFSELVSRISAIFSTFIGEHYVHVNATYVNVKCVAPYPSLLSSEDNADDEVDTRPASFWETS
# Procedure: A number of compounds of the present invention were assayed in an antibody based kinase phosphorylation assay as follows.
# Epk c-Met Profiling Assay:
# The EPK kinase assay for c-Met receptor tyrosine kinase was developed, using the purified recombinant GST-fusion protein, containing the cytoplasmic domain of the enzyme. GST-c-Met(969-1390) was purified by affinity chromatography.
# The kinase assay is based on the LanthaScreen™ technology. LanthaScreen™ is the detection of Time-Resolved Fluorescence Resonance Energy Transfer (TR-FRET) using lanthanide chelates to measure interactions between various binding partners. In a TR-FRET kinase assay, a long-lifetime lanthanide donor species is conjugated to an antibody that specifically binds to a phosphorylated product of a kinase reaction that is labeled with a suitable acceptor fluorophore. This antibody-mediated interaction brings the lanthanide donor and the acceptor into proximity such that resonance energy transfer can take place, resulting in a detectible increase in the FRET signal.
# The kinase reactions were performed in 384 well microtiter plates in a total reaction volume of 9.05 μL. The assay plates were prepared with 0.05 μL per well of test compound in the appropriate test concentration, as described under “preparation of compound dilutions”. The reactions were started by combining 4.5 μL of ATP solution with 4.5 μL of enzyme-substrate mix (consisting of kinase and substrate). The final concentrations in the kinase reactions were 35 mM Tris/HCl, 1 mM DTT, 0.025% Tween20, 10 μM sodium orthovanadate, 0.25% BSA, 0.6% DMSO, 10 mM MgCl2, 3 mM MnCl2, 2 μM ATP, 50 nM Fluorescein-PolyEAY, and 0.3 nM enzyme.
# The reactions were incubated for 60 minutes at room temperature and stopped by adding 4.5 μL of stop buffer (50 mM EDTA, 0.04% NP40, 20 mM Tris/HCl).
# Subsequently 4.5 μL of detection mix (50 mM Tris/HCl, 2 mM DTT, 0.05% Tween20, 20 μM sodium orthovanadate, 1% BSA, 1.72 μg/mL Tb-PY20 antibody) were added to the stopped reactions. After 30 minutes incubation at room temperature, the plates were measured in a BMG Pherastar fluorescence reader. The effect of compound on the enzymatic activity was in all assays obtained from the linear progress curves and determined from one reading (end point measurement).
# Preparation of Compound Dilutions
# Test compounds were dissolved in DMSO (10 mM) and transferred into 1.4 mL flat bottom or V-shaped Matrix tubes carrying a unique 2D matrix. The stock solutions were stored at −20° C. if not used immediately. For the test procedure the vials were defrosted and identified by a scanner whereby a working sheet was generated that guided the subsequent working steps.
# Compound dilutions were made in 96 well plates. This format enabled the assay of maximally 40 individual test compounds at 8 concentrations (single points) including 4 reference compounds. The dilution protocol included the production of “pre-dilution plates”, “master plates” and “assay plates”.
# Pre-dilution plates: 96 polypropylene well plates were used as pre-dilution plates. A total of 4 pre-dilution plates were prepared including 10 test compounds each on the plate positions A1-A10, one standard compound at A11 and one DMSO control at A12. All dilution steps were done on a HamiltonSTAR robot.
# Master plates: 100 μL of individual compound dilutions including standard compound and controls of the 4 “pre-dilution plates” were transferred into a 384 “master plate” including the following concentrations 1′820, 564, 182, 54.6, 18.2, 5.46, 1.82 and 0.546 μM, respectively in 90% of DMSO.
# Assay plates: Identical “assay plates” were then prepared by pipetting 50 nL each of compound dilutions of the “master plates” into 384-well “assay plates” by means of a HummingBird 384-channel dispenser. These plates were used directly for the assay which was performed in a total volume of 9.05 μL. […]
# [3] = test system: MET-amplified gastric cancer cell line GTL-16; assay: GTL-16 proliferation assay (MTS); type: cell-based; details: Homo sapiens, GTL-16 cells, 72 h incubation
# Procedure: as §1, §2
# GTL-16 proliferation assay: the MET-amplified gastric cancer cell line GTL-16 was grown under standard cell culture conditions in DMEM [Dulbecco's Modified Eagle Medium] (high glucose) supplemented with 10% heat-inactivated fetal calf serum and 2 mM L-glutamine. For proliferation assays, cells were seeded at 3000 per well in 96-well-plates. 24 h later, a 10-point dilution series of each compound (3-fold steps, ranging from […]) was prepared in DMSO. Compound were then diluted 1000-fold in growth media in two steps and added to cells in triplicates, resulting in a final volume of […] per well and maximal final compound concentrations of […]. A DMSO-only control was included. Cells were incubated for 72 h and the amount of viable cells was then measured by adding […] of MTS reagent (CellTiter 96® AQueous Non-Radioactive Cell Proliferation Assay, Promega), further incubation for 30′, and reading the optical density at 490 nm.
Compound,IC50 [1],IC50 [2],IC50 [3]
"CC(c1c(F)cc2ncccc2c1F)c1cnc2ccc(N3CCN(C)C(=O)C3C)nn12 (racemic) [Example 21, (rac)-4-{3-[1-(5,7-Difluoro-quinolin-6-yl)-ethyl]-imidazo[1,2-b]pyridazin-6-yl}-1,3-dimethylpiperazin-2-one]",< 3 nM,19 nM,9 nM
"CC(c1c(F)cc2c(cnn2C(C)C)c1F)c1cnc2ccc(N3CCN(C)C(=O)C3)nn12 (racemic) [Example 56, (rac)-4-(3-(1-(4,6-difluoro-1-isopropyl-1H-indazol-5-yl)ethyl)imidazo[1,2-b]pyridazin-6-yl)-1-methylpiperazin-2-one]",7 nM,27 nM,49 nM
"C[C@@H](c1c(F)cc2ncccc2c1F)c1cnc2ccc(N3CCNC(=O)[C@@H]3C)nn12 [Example 60, (S)-4-{3-[(S)-1-(5,7-Difluoro-quinolin-6-yl)-ethyl]-imidazo[1,2-b]pyridazin-6-yl}-3-methyl-piperazin-2-one]",2.3 nM,2.6 nM,4.8 nM
"CC(c1c(F)cc2ncccc2c1F)c1cnc2ccc(N3CCNCC3)nn12 (racemic) [Example 6, (rac)-5,7-Difluoro-6-[1-(6-piperazin-1-yl-imidazo[1,2-b]pyridazin-3-yl)-ethyl]-quinoline]",3 nM,4.5 nM,11.6 nM
"CC(c1c(F)cc2ncccc2c1F)c1cnc2ccc(N3CCN(c4ccccn4)C(=O)C3)nn12 (racemic) [Example 25, (rac)-4-{3-[1-(5,7-Difluoro-quinolin-6-yl)-ethyl]-imidazo[1,2-b]pyridazin-6-yl}-1-(pyridin-2-yl)piperazin-2-one]",8 nM,15 nM,13 nM
"COC(=O)N1CCN(c2ccc3ncc(Cc4c(F)cc5ncccc5c4F)n3n2)CC1 [Example 36, 4-[3-(5,7-Difluoro-quinolin-6-ylmethyl)-imidazo[1,2-b]pyridazin-6-yl]-piperazine-1-carboxylic acid methyl ester]",< 3 nM,11 nM,25 nM
"CC(c1c(F)cc2ncccc2c1F)c1cnc2ccc(N3CCN(C(=O)C(F)(F)F)CC3)nn12 (racemic) [Example 17, (rac)-1-(4-{3-[1-(5,7-Difluoro-quinolin-6-yl)-ethyl]-imidazo[1,2-b]pyridazin-6-yl}-piperazin-1-yl)-2,2,2-trifluoro-ethanone]",14 nM,24 nM,20 nM
"CC(c1c(F)cc2c(cnn2C(C)C)c1F)c1cnc2ccc(N3CCNC(=O)C3)nn12 (racemic) [Example 57, (rac)-4-(3-(1-(4,6-difluoro-1-isopropyl-1H-indazol-5-yl)ethyl)imidazo[1,2-b]pyridazin-6-yl)piperazin-2-one]",9 nM,17 nM,36 nM
"CN1CCN(c2ccc3ncc(Cc4c(F)cc5ncccc5c4F)n3n2)CC1 [Example 33, 5,7-Difluoro-6-[6-(4-methyl-piperazin-1-yl)-imidazo[1,2-b]pyridazin-3-ylmethyl]-quinoline]",9 nM,14 nM,46 nM
"CC(c1c(F)cc2ncccc2c1F)c1cnc2ccc(N3CC(=O)NCC3C)nn12 (racemic) [Example 23, (rac)-4-{3-[1-(5,7-Difluoro-quinolin-6-yl)-ethyl]-imidazo[1,2-b]pyridazin-6-yl}-5-methylpiperazin-2-one]",3.3 nM,15 nM,8.5 nM
"CC(c1ccc2ncccc2c1F)c1cnc2ccc(N3CCN(C)C(=O)C3)nn12 (racemic) [Example 46, (rac)-4-{3-[1-(5-Fluoro-quinolin-6-yl)-ethyl]-imidazo[1,2-b]pyridazin-6-yl}-1-methyl-piperazin-2-one]",15 nM,30 nM,47 nM
"CC(c1c(F)cc2ncccc2c1F)c1cnc2ccc(N3CCN(C)CC3)nn12 (racemic) [Example 8, (rac)-5,7-Difluoro-6-{1-[6-(4-methyl-piperazin-1-yl)-imidazo[1,2-b]pyridazin-3-yl]-ethyl}-quinoline]",< 3 nM,5.7 nM,15.5 nM
"CC(=O)N1CCN(c2ccc3ncc([C@@H](C)c4cc5cnn(C)c5cc4F)n3n2)CC1 [Example 29, 1-(4-{3-[(S)-1-(6-Fluoro-1-methyl-1H-indazol-5-yl)-ethyl]-imidazo[1,2-b]pyridazin-6-yl}-piperazin-1-yl)-ethanone]",25 nM,55 nM,136 nM
"C[C@@H](c1c(F)cc2c(cnn2C)c1F)c1cnc2ccc(N3CCN(C)C(=O)C3)nn12 [Example 50, 4-{3-[(S)-1-(4,6-Difluoro-1-methyl-1H-indazol-5-yl)-ethyl]-imidazo[1,2-b]pyridazin-6-yl}-1-methyl-piperazin-2-one]",2.7 nM,8.3 nM,11 nM
